# Experimental data taken from patent US20150141375A1 (priority 2009, published 2015).
# Where two headings read alike, the source gives them in different places.
# How the values were obtained:
# [1] = test system: BKV; assay: First fifteen EIND patients: BKV; assay type: in vivo, human; conditions: one of two BKV patients
# [2] = test system: HCMV(AD169); assay: In vitro potency against dsDNA viruses: HCMV; assay type: cell-based
# [3] = test system: CMV
# [4] = test system: HSV-1; assay: microbe, parasite or virus in culture; assay type: cell-based
# [5] = test system: ADV; assay: EIND patients previously treated with other antivirals: ADV; assay type: in vivo, human; conditions: EIND 108104
# Protocol: (§1) A further study has been conducted on patients with various viral infections and diseases associated with virus.
# (§2) As shown in Table 5(b), all patients that have been previously treated with other antiviral agents for example cidofovir. […] After these patients are treated with CMX001, the patients show significant improvements.
# [6] = test system: EBV; assay: In vitro potency against dsDNA viruses: EBV; assay type: cell-based
# [7] = test system: BK Virus; assay: In vitro potency against BK Virus in WI-38 cells; assay type: cell-based
# [8] = test system: JC; assay: In vitro potency against dsDNA viruses: JC; assay type: cell-based, JC virus
# [9] = test system: Variola major; assay: organism not typed; assay type: cell-based
# [10] = test system: JCV (Mad-4); assay: JCV (Mad-4) replication in COS-7 cells (qPCR, immunofluorescence); assay type: cell-based, JC virus
# [11] = test system: HHV-6; assay: In vitro potency against dsDNA viruses: HHV-6; assay type: cell-based
# [12] = test system: HSV-2; assay: In vitro efficacy against HSV-2 strains in HFF (CPE, plaque reduction); assay type: cell-based
# Text: In vitro screening by CPE assay in human foreskin fibroblast (HFF) cells with confirmation using plaque reduction assays in HFF.
# [13] = test system: EBV; assay: Patients with EBV-associated PTLD treated with CMX001; assay type: in vivo, human
# Text: The first patient is a patient with a history of sickle cell anemia developed EBV-associated intracranial post-transplant lymphoproliferative disorder (PTLD). EBV was positive in the plasma (7 Dec. and 14 Dec. 2010) and brain biopsies were consistent with PTLD. In early December, the patient presented with a 3 day history of persistent headache, nausea, vomiting, and diarrhea. […] The patient was admitted to PICU. High intracranial pressure, repetitive seizures associated with apnea led to intubtion and emergency request for CMX001. The use of CMX001 in this patient with EBV-associated PTLD is ongoing since 26 Dec. 2009.
# The second patient was a heart transplant recipient with EBV-associated PTLD. The patient acquired a primary EBV infection post-operatively. […] The clinical condition continued to destabilize with what was presumed to be EBV-associated encephalitis with EBV detected in the CSF, clinical and EEG-correlated seizure activity and decreased responsiveness and changes in mental status. At the time of request for CMX001, the patient was on mechanical ventilation, had evidence of both pneumonia and PTLD of their lungs, evidence of seizure activity with clinical criteria for encephalopathy being present. The patient received their first dose of CMX001, 20 mg (approximately 3.3 mg/kg) on 3 Mar. 2010, and their second dose on 7 Mar. […] The patient continued to show evidence of progressive neurologic injury. The parents withdrew support on the day following their second dose of CMX001.
# [14] = test system: JCV Mad-4; assay: JCV Mad-4 extracellular load in astrocyte cells; assay type: cell-based, JC virus; conditions: in the presence of CMX001
# [15] = test system: BKV; assay: EIND patients previously treated with other antivirals: BKV; assay type: in vivo, human
# Protocol: as §1, §2
smiles,measurement,setting,value
"CCCCCCCCCCCCCCCCOCCCOP(=O)(O)CO[C@H](CO)Cn1ccc(N)nc1=O [CMX001, Hexadecyloxypropyl-cidofovir]",response,[1],> 1.5 log 10
same,Enhanced Activity,[2]; CMX001 versus cidofovir EC50,422
same,EC50,"[2]; Human betaherpesvirus 5, AD169, MRC5, MRC-5",0.9 nM
same,average reduction in CMV by PCR,[3]; 2 of 5 patients without UL54 mutations,1.2 log 10
same,median reduction in VL,"[3]; 4 weeks, 7 patients",greater than 1.2 log 10
same,1 log reduction in viremia at the last time point,[3]; patients with UL54 mutation (L501F and A987G),Neither of two patients
same,complete response,[3]; patients without mutations in CMV UL54 (3 of 5),60%
same,dose adjustment for kidney function,[3]; two patients with pre-existing renal insufficiency,no dose adjustment was needed based on kidney function
same,EC50,"[4]; Human alphaherpesvirus 1, ACV resistant strain B-2006",10 ± 0.7 nM
same,EC50,"[4]; Human alphaherpesvirus 1, ACV resistant strain DM2.1",8 nM
same,EC50,"[4]; Human alphaherpesvirus 1, ACV resistant strain PAAr5",10 nM
same,EC50,"[4]; Human alphaherpesvirus 1, F (wild type), Table 9",15 ± 6 nM
same,EC50,"[4]; Human alphaherpesvirus 1, SC16, ACV resistant strain SC16-S1",10 nM
same,EC50,"[4]; Human alphaherpesvirus 1, read-out: EC50 range, panel of wild-type and ACV-resistant isolates of HSV-1 and HSV-2",8 to 30 nM
same,EC50,"[4]; Human alphaherpesvirus 1, strain E-377",60 ± 30 nM
same,EC50,"[4]; Human alphaherpesvirus 1, strain F",10 ± 5 nM
same,EC50,"[4]; Human alphaherpesvirus 1, strain HL-3",10 ± 10 nM
same,"AdV viruria rebound, distance from baseline",[5],within 0.7 log10 from baseline.
same,hemorrhagic cystitis,[5],cystitis improved.
same,initial decline of AdV viruria,[5],"2.8 log10 decline, but it rebounded to"
same,Enhanced Activity,[6]; CMX001 versus cidofovir EC50,>4250
same,EC50,"[6]; human gammaherpesvirus 4, Dardi",40 nM
same,EC50,"[7]; Betapolyomavirus hominis, WI-38",130 nM
same,selectivity index (SI)-50,"[7]; WI-38, cells harvested 7 days after infection",113
same,Enhanced Activity,[8]; CMX001 versus cidofovir EC50,19
same,EC50,[8]; JC polyomavirus,20 nM
same,Enhanced Activity,[9]; CMX001 versus cidofovir EC50,271
same,EC50,[9]; Vero 76,100 nM
same,reduction of extracellular JCV loads,[10]; 0.6 μM CMX001,approximately 90%
same,JCV VP1 immunofluorescence,"[10]; 1.25 μM CMX001, 7 d.p.i.",significant reduction of JCV VP1 signal
same,change in the JCV load over 7 days,[10]; 5 μM CMX001,less than 1 log
same,JCV VP1 immunofluorescence,"[10]; 5 μM CMX001, 7 d.p.i.",essentially no VP1 positive cells could be observed
same,extracellular JCV load,"[10]; 5 μM CMX001, 7 d.p.i. (day 1: 1.34×10^7; untreated: 5.67×10^10)",8.85×10^7 geq/ml
same,IC90,"[10]; JC polyomavirus, 120 h, COS-7, 5 d.p.i., viral input subtracted, read-out: IC-90, extracellular JCV load",600 nM
same,EC50,"[10]; JC polyomavirus, 120 h, COS-7, 5 days",150 nM
same,Enhanced Activity,[11]; CMX001 versus cidofovir EC50,50
same,EC50,"[11]; HSB2, HSB-2",4 nM
same,EC50,"[12]; Human alphaherpesvirus 2, ACV resistant strain 11572",27 ± 18 nM
same,EC50,"[12]; Human alphaherpesvirus 2, ACV resistant strain 11680",9 ± 0.7 nM
same,EC50,"[12]; Human alphaherpesvirus 2, ACV resistant strain 12247",21 ± 12 nM
same,EC50,"[12]; Human alphaherpesvirus 2, ACV resistant strain AG-3",23 ± 9 nM
same,EC50,"[12]; Human alphaherpesvirus 2, G (wild type), Table 9",29 ± 15 nM
same,EC50,"[12]; Human alphaherpesvirus 2, strain G",10 ± 10 nM
same,EC50,"[12]; Human alphaherpesvirus 2, strain MS",80 ± 70 nM
same,EC50,"[12]; Human alphaherpesvirus 2, strain SR",20 ± 20 nM
same,EBV viral load,"[13]; heart transplant recipient, 7 Mar. 2010 after first dose 20 mg (3 Mar. 2010: 267,338)","47,427 copies/mL"
same,EBV in the plasma,"[13]; patient, 4 mg/kg twice weekly",remains negative
same,tolerability,"[13]; patient, 4 mg/kg twice weekly",tolerated CMX001 well
same,change in extracellular JCV load over 7 days,[14],less than 1 log
same,hemorrhagic cystitis,[15]; EIND 107275,improved while on CMX001
same,BK viruria,"[15]; EIND 107640, declined from 120 million",48 million copies/mL
same,BK viremia,"[15]; EIND 107640, decreased from 1900",1900 to 28 copies/mL; BK
same,Hemorragic cystitis,[15]; EIND 108897,Hemorragic cystitis resolved
same,BKV in urine,"[15]; EIND 108897, at last dose (baseline 7.7 log10), 4 mg/kg twice weekly 2 weeks",log10 at baseline to 5.1 log10 at last
same,decrease of BKV in urine,"[15]; EIND 109232, first two weeks, 2 mg/kg twice weekly",BKV in urine decreased 2.2 log10
